Where two headings read alike, the source gives them in different places.

Series [1] relates to female mice. The series can be described thus: Skin sensitization test, local lymph node assay (LLNA, OECD test guideline 429), BrdU intake by ELISA. To be noted: test substance 50.0 w/v % in acetone/olive oil 4:1, 25 μL/auricle once a day for 3 days.
Protocol: (§1) According to the skin sensitization test of local lymph node assay (LLNA) specified in OECD test guideline 429, the SI value was measured in the following manner.
(§2) Before treated with the test substances, the positive control or the vehicle control, female mice were acclimated for 8 days including 6-day quarantine. No abnormalities were found in all the mice (used animals) during the quarantine/acclimation period. Based on the body weights measured 2 days before the initiation of sensitization, they were categorized into 2 groups (4 mice/group) by the body weight stratified random sampling method so that the body weight of each individual was within ±20% of the average body weight of all the individuals. Each of the used animals was 8 weeks old to 9 weeks old at the time of the initiation of sensitization. […]
(§3) About 24 hours after the administration of BrdU, the used animals were allowed to undergo euthanasia, and their auricular lymph nodes were sampled. […] Also, the average of the weights of the auricular lymph nodes and the standard error thereof were calculated for each group. […]
(§4) After returning the auricular lymph nodes to room temperature, the auricular lymph nodes were mashed with the gradual addition of physiological saline, and suspended therein. […] The thus-dispensed suspensions were measured for intake of BrdU by the ELISA method. […]
Series [2] relates to skin sensitization. The conditions noted are these: cited from earlier work.
For series [3], the system named is skin sensitization. To be noted: vinyl ethers stated as negative; basis not given; cited from earlier work.
Series [4] deals with female mice. The conditions noted are these: mouse, in vivo.
Protocol: as §1, §2, §3, §4

With `C=C(C)C(=O)OCCOCCOC(=O)C(=C)C` [Compound 2G, Diethylene glycol dimethacrylate], the “SI value (Stimulation Index)” value in series [1] is given as 1.1.

Regarding `O=C(c1ccccc1)C1(O)CCCCC1` [Irgacure 184, 1-hydroxycyclohexylphenyl ketone], the “Skin sensitization evaluated in MSDS” value in series [2] was “no”.

Turning to `Cc1cc(C)c(C(=O)P(=O)(C(=O)c2c(C)cc(C)cc2C)c2ccccc2)c(C)c1` [Irgacure 819, Bis(2,4,6-trimethylbenzoyl)-phenylphosphone oxide], the “Skin sensitization evaluated in MSDS” value in series [2] (MSDS) is “yes”.

For the compound `C=COCC` [ethyl vinyl ether], the Skin sensitization entry in series [3] was “negative for skin sensitization”.

Consider `C=COCCCCO` [hydroxybutyl vinyl ether], for which the Skin sensitization result in series [3] is on record as “negative for skin sensitization”.

Regarding `C=COCCOCCOCCOC=C` [triethylene glycol divinyl ether], the Skin sensitization entry in series [3] was “negative for skin sensitization”.

For the compound “Caprolactone-modified dipentaerythritol hexaacrylate [DPCA60]”, the “SI value (Stimulation Index)” value in series [4] came to 1.0.
